Measured values taken from ChEMBL document CHEMBL1201862, “PubChem BioAssay data set” (2004).
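Compound exposure: 48 hours, 5 concentrations, 96-well plates. Abbreviation: GI50, concentration required for 50% inhibition of growth.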 Calls of active or inactive are those of the source. Cut-off read from the data, not from the text of the source: active = GI50 up to about 1.1 µM and inactive = higher.

Experiments:
Assay in all cases: growth of human tumour cells (NCI), 48 h
T47D = tested on: T47D
MOLT-4 = tested on: MOLT-4
DU-145 = tested on: DU-145
A549 = tested on: A549
SNB-75 = tested on: SNB-75
SF-268 = tested on: SF-268
SNB-19 = tested on: SNB-19
LOX IMVI = tested on: LOX IMVI
PC-3 = tested on: PC-3
SR = tested on: SR
NCI-H460 = tested on: NCI-H460
UACC-257 = tested on: UACC-257
SN12C = tested on: SN12C
NCI-H522 = tested on: NCI-H522
HT-29 = tested on: HT-29
SW-620 = tested on: SW-620
Malme-3M = tested on: Malme-3M
HOP-92 = tested on: HOP-92
NCI-H226 = tested on: NCI-H226
A498 = tested on: A498

Measured: GI50

O=C(OCC(Cl)(Cl)Cl)N1CC[C@@H](C2CCCCC2)C1
inactive: T47D 32.7 µM | MOLT-4 33.8 µM | DU-145 35.6 µM | A549 27.3 µM | SNB-75 21.7 µM | SF-268 17.3 µM | SNB-19 19.7 µM | LOX IMVI 40.6 µM | PC-3 21.2 µM | SR 32.2 µM | NCI-H460 21 µM | UACC-257 28.4 µM | SN12C 29.3 µM | NCI-H522 21.7 µM

[O-][N+]1=C(c2ccccc2)/C(=C2/C(c3ccccc3)=[N+]([O-])c3ccccc32)Cc2ccccc21
inactive: T47D 16.3 µM | MOLT-4 22.8 µM | DU-145 22 µM | A549 13.8 µM | SNB-75 15.5 µM | HT-29 19.4 µM | SNB-19 19 µM | LOX IMVI 16.7 µM | PC-3 12.9 µM | SW-620 22.4 µM | Malme-3M 21.3 µM | UACC-257 18.3 µM | HOP-92 15.2 µM | NCI-H226 22.5 µM | A498 5.52 µM | SN12C 16.6 µM | NCI-H522 15.3 µM

COC(=O)[C@H]1NC(=O)CCSSC1(C)C
inactive: T47D > 100 µM | MOLT-4 > 100 µM | DU-145 > 100 µM | A549 > 100 µM | HT-29 > 100 µM | SF-268 > 100 µM | SNB-19 > 100 µM | LOX IMVI > 100 µM | PC-3 > 100 µM | SW-620 > 100 µM | Malme-3M > 100 µM | UACC-257 > 100 µM | HOP-92 > 100 µM | NCI-H226 > 100 µM | A498 > 100 µM | SN12C > 100 µM | NCI-H522 > 100 µM

COC(=O)[C@H](Cc1ccccc1)NC(=O)c1ccc(CNC(=O)/C=C/c2ccc(-c3ccccc3)cc2)cc1
inactive: T47D > 100 µM | MOLT-4 > 100 µM | DU-145 > 100 µM | A549 > 100 µM | SNB-75 10.5 µM | HT-29 3.71 µM | SF-268 15.2 µM | SNB-19 12.6 µM | PC-3 > 100 µM | SW-620 > 100 µM | Malme-3M 24.9 µM | NCI-H460 > 100 µM | UACC-257 > 100 µM | HOP-92 80.9 µM | NCI-H226 > 100 µM | A498 > 100 µM | SN12C > 100 µM

O=C(Nc1ccccc1)c1cc2ccccc2c(/N=N/c2ccc([N+](=O)[O-])cc2)c1O
inactive: T47D > 100 µM | MOLT-4 17 µM | DU-145 > 100 µM | A549 > 100 µM | SNB-75 73.5 µM | HT-29 > 100 µM | SF-268 > 100 µM | SNB-19 59.6 µM | LOX IMVI > 100 µM | PC-3 > 100 µM | SW-620 > 100 µM | Malme-3M > 100 µM | UACC-257 > 100 µM | HOP-92 99.3 µM | NCI-H226 > 100 µM | SN12C > 100 µM | NCI-H522 > 100 µM

CCOC(=O)C(C(=O)OCC)C(NC(=O)Nc1cc(C(F)(F)F)ccc1OC)(C(F)(F)F)C(F)(F)F
inactive: T47D 30.4 µM | MOLT-4 24 µM | DU-145 40.3 µM | A549 39.4 µM | HT-29 35.8 µM | SF-268 36.4 µM | SNB-19 39.9 µM | LOX IMVI 29.8 µM | PC-3 39.6 µM | SW-620 24.6 µM | Malme-3M 24.5 µM | NCI-H460 31.5 µM | UACC-257 39.5 µM | HOP-92 25.5 µM | NCI-H226 25.5 µM | A498 16.5 µM | SN12C 27.5 µM | NCI-H522 22.3 µM

CC(C)CC(NP(=O)(O)OC1OC(C)C(O)C(O)C1O)C(=O)NC(Cc1c[nH]c2ccccc12)C(=O)O (stereo not given)
inactive: T47D > 100 µM | MOLT-4 > 100 µM | DU-145 > 100 µM | A549 > 100 µM | SNB-75 > 100 µM | HT-29 > 100 µM | SF-268 > 100 µM | SNB-19 > 100 µM | PC-3 > 100 µM | SW-620 > 100 µM | Malme-3M > 100 µM | NCI-H460 > 100 µM | UACC-257 > 100 µM | HOP-92 > 100 µM | NCI-H226 > 100 µM | A498 > 100 µM | SN12C > 100 µM | NCI-H522 > 100 µM

O=S(=O)(O)c1cc(Nc2ccnc3ccccc23)c2c(S(=O)(=O)O)cc(S(=O)(=O)O)cc2c1
inactive: T47D > 100 µM | MOLT-4 > 100 µM | DU-145 > 100 µM | A549 > 100 µM | SNB-75 > 100 µM | HT-29 > 100 µM | SF-268 > 100 µM | LOX IMVI > 100 µM | PC-3 > 100 µM | SW-620 42.1 µM | Malme-3M > 100 µM | NCI-H460 > 100 µM | UACC-257 > 100 µM | NCI-H226 > 100 µM | A498 > 100 µM | SN12C > 100 µM | NCI-H522 > 100 µM
